In patent publication US9945862B2, “Biomarkers for predicting and assessing responsiveness of thyroid and kidney cancer subjects to lenvatinib compounds” (Eisai R&D Management Co., Ltd., priority 2011, dated 2018):

Test system: cytokine, chemokine and angiogenic factors (blood biomarkers)
Assay: Serum blood biomarkers (cytokine, chemokine and angiogenic factors) by ELISA and multiplex kits, pre- and post-treatment with E7080
Type: in vivo, human
Protocol: Patients received E7080 at a dose of 24 mg oral once daily in 28 day cycles. […] 7.5 mL of blood was drawn into serum […] tube (SST) and let to clot at room temperature for at least 30 min. Within 60 minutes of sample collection, the tubes were centrifuged for 10 minutes at 20-25° C. at 1400×g. The supernatant was drawn without disturbing the pellet and the serum was mixed and divided into two sample tubes and stored frozen (−70° C.) at an upright position until further treatment for analysis. Serum samples from 58 patients were used for blood biomarker analysis. […] The association of progression free survival with or without a covariate was analyzed. The covariates used are the following PK parameters: cycle 1 day 1 Cmax (E7080 concentration 2 hr after dosing on cycle 1 day 1: MAX1); cycle 1 day 1 Ctrough (E7080 concentration before dosing on cycle1 day 8: MIN1); cycle 2 day 1 Cmax (E7080 concentration 2 hrs after dosing on cycle 2 day 1: MAX2); cycle 2 day 1 Ctrough (E7080 concentration before dosing on cycle 2 day 1: MIN2). Serum samples were tested in batch format where all timepoints from the same subject were assayed on the same day. On the day of assay, samples were removed from −80° C. and allowed to thaw and reach room temperature. The serum samples were tested using the following commercial assay kits as per the manufacturer's instructions: Human Soluble Tie-2 ELISA (R&D Systems Cat. No. DTE200), Human Angiopoietin-1 ELISA (R&D Systems Cat. No. DANG10), Human FGF23 ELISA, Human SDF-1a ELISA. Human Angiopoietin-2 ELISA (R&D Systems Cat. No. DANG20), Human Soluble Receptor Multiplex (Millipore Cat. No. HSCR-32K; sVEGF R1, sVEGF R2 and sVEGF R3 only), Human Cytokine/Chemokine Panel I Multiplex (Millipore Cat. No. MPXHCYTO-60K; IL-1α, IL-1β, IL-1ra, IL-2, IL-4, IL-5, IL-6, IL-7, IL-8, IL-10, IL-12p40, IL-12p70, IL-13, IL-15, IL-17, sCD40L, EGF, Eotaxin, FGF-2, G-CSF, GM-CSF, IFN-γ, IP-10, MCP-1, MIP-1α, MIP-1β, PDGF-AA, RANTES, TGF-α, TNF-α and VEGF only) and Human Growth Factor Multiplex (Origene TruPLEX Cat. No. AM100096; PDGF-AB, PDGF-BB, FGF4, VEGFD, FGF2, EGF, HGF, FLT3LG, ANGPT2, PGF and VEGFA).
The ELISA plates were measured using a Molecular Devices UVmax kinetic microplate reader with SoftMax Pro 5.2 software. The multiplex assays were performed using the Bio-Rad Bio-Plex system with Bio-Plex Manager 4.1 software. Final protein concentrations (pg/mL) were calculated from the standard curve for each assay. Depending on the assay, serum samples may have been diluted in assay buffer prior to testing. In these cases, protein concentrations were multiplied by the dilution factor.
From 58 patient samples, between 27 and 49 pre- and post-treatment blood samples were used for analyses.

COc1cc2nccc(Oc3ccc(NC(=O)NC4CC4)c(Cl)c3)c2cc1C(N)=O [E7080, 4-(3-chloro-4-(cyclopropylaminocarbonyl)aminophenoxy)-7-methoxy-6-quinolinecarboxamide]
ANG2 (90) concentration (Median), PR group (CYCLE 1 DAY 1 (pre-treatment)): 829.5 pg/mL
ANG2 (90) concentration (Median), others (SD or PD) (CYCLE 1 DAY 1 (pre-treatment)): 1032.9 pg/mL
Ang-2 concentration (Median), PR group (CYCLE 1 DAY 1 (pre-treatment)): 2530.5 pg/mL
Ang-2 concentration (Median), others (SD or PD) (CYCLE 1 DAY 1 (pre-treatment)): 3399 pg/mL
IFN-g concentration (Median), PR group (CYCLE 1 DAY 1 (pre-treatment)): 7.9 pg/mL
IFN-g concentration (Median), others (SD or PD) (CYCLE 1 DAY 1 (pre-treatment)): 21.2 pg/mL
ANG2 (90) concentration (Median), PR group (CYCLE 1 DAY 8): 591.7 pg/mL
ANG2 (90) concentration (Median), others (SD or PD) (CYCLE 1 DAY 8): 799.3 pg/mL
ANG2 (90) serum level post treatment (median) (CYCLE 1 DAY 8): 688.6 pg/mL
Ang-2 serum level post treatment (median) (CYCLE 1 DAY 8): 1812 pg/mL
Eotaxin serum level post treatment (median) (CYCLE 1 DAY 8): 154.7 pg/mL
FLT3 LG (89) serum level post treatment (median) (CYCLE 1 DAY 8): 71.1 pg/mL
G-CSF serum level post treatment (median) (CYCLE 1 DAY 8): 67.1 pg/mL
HGF (86) serum level post treatment (median) (CYCLE 1 DAY 8): 1339.3 pg/mL
IL-6 serum level post treatment (median) (CYCLE 1 DAY 8): 17.3 pg/mL
IL-7 serum level post treatment (median) (CYCLE 1 DAY 8): 6.4 pg/mL
IL-8 serum level post treatment (median) (CYCLE 1 DAY 8): 31.7 pg/mL
IL-17 serum level post treatment (median) (CYCLE 1 DAY 8): 14.4 pg/mL
IP-10 serum level post treatment (median) (CYCLE 1 DAY 8): 474.3 pg/mL
PGF (91) serum level post treatment (median) (CYCLE 1 DAY 8): 35.9 pg/mL
SDF-1a concentration (Median), PR group (CYCLE 1 DAY 8): 3294 pg/mL
SDF-1a concentration (Median), others (SD or PD) (CYCLE 1 DAY 8): 2915 pg/mL
SDF-1a serum level post treatment (median) (CYCLE 1 DAY 8): 3129.0 pg/mL
TGFa serum level post treatment (median) (CYCLE 1 DAY 8): 14.6 pg/mL
Tie-2 serum level post treatment (median) (CYCLE 1 DAY 8): 31685 pg/mL
VEGF serum level post treatment (median) (CYCLE 1 DAY 8): 741.4 pg/mL
VEGFA (100) serum level post treatment (median) (CYCLE 1 DAY 8): 202.1 pg/mL
sVEGFR1 serum level post treatment (median) (CYCLE 1 DAY 8): 300 pg/mL
sVEGFR2 serum level post treatment (median) (CYCLE 1 DAY 8): 18823.1 pg/mL
FGF-2 ratio (Median), PR group (CYCLE 1 DAY 8/CYCLE 1 DAY 1): 1.189
FGF-2 ratio (Median), others (SD or PD) (CYCLE 1 DAY 8/CYCLE 1 DAY 1): 0.952
GM-CSF ratio (Median), PR group (CYCLE 1 DAY 8/CYCLE 1 DAY 1): 1.037
GM-CSF ratio (Median), others (SD or PD) (CYCLE 1 DAY 8/CYCLE 1 DAY 1): 0.945
ANG2 (90) fold change (median) (CYCLE 1 DAY 8 vs CYCLE 1 DAY 1): 0.671
Ang-2 fold change (median) (CYCLE 1 DAY 8 vs CYCLE 1 DAY 1): 0.665
Eotaxin fold change (median) (CYCLE 1 DAY 8 vs CYCLE 1 DAY 1): 1.171
FLT3 LG (89) fold change (median) (CYCLE 1 DAY 8 vs CYCLE 1 DAY 1): 0.885
G-CSF fold change (median) (CYCLE 1 DAY 8 vs CYCLE 1 DAY 1): 1.25
HGF (86) fold change (median) (CYCLE 1 DAY 8 vs CYCLE 1 DAY 1): 1.096
IL-6 fold change (median) (CYCLE 1 DAY 8 vs CYCLE 1 DAY 1): 1.824
IL-7 fold change (median) (CYCLE 1 DAY 8 vs CYCLE 1 DAY 1): 1
IL-8 fold change (median) (CYCLE 1 DAY 8 vs CYCLE 1 DAY 1): 1.164
IL-17 fold change (median) (CYCLE 1 DAY 8 vs CYCLE 1 DAY 1): 1.025
IP-10 fold change (median) (CYCLE 1 DAY 8 vs CYCLE 1 DAY 1): 1.249
PGF (91) fold change (median) (CYCLE 1 DAY 8 vs CYCLE 1 DAY 1): 2.306
SDF-1a fold change (median) (CYCLE 1 DAY 8 vs CYCLE 1 DAY 1): 1.21
TGFa fold change (median) (CYCLE 1 DAY 8 vs CYCLE 1 DAY 1): 1.157
Tie-2 fold change (median) (CYCLE 1 DAY 8 vs CYCLE 1 DAY 1): 0.917
VEGF fold change (median) (CYCLE 1 DAY 8 vs CYCLE 1 DAY 1): 1.29
VEGFA (100) fold change (median) (CYCLE 1 DAY 8 vs CYCLE 1 DAY 1): 1.28
sVEGFR1 fold change (median) (CYCLE 1 DAY 8 vs CYCLE 1 DAY 1): 0.92
